Measured values published in patent US20250332080A1, “Skin Cell Energy Booster Composition” (CarboCode S.A., priority 2022, published 2025).

Test system: Reconstructed Human Epidermis (RHE)
Assay: Proteomic (LC-MS/MS) analysis of Reconstructed Human Epidermis treated topically with ceramide in base emulsion
Type: cell-based
Conditions: topical 24 h, 0.01%, 0.03%, 0.15% ceramide in vehicle vs vehicle
Source text: FIGS. 1 to 3 show heatmaps using a log 2 scale with up- or downregulation of respective proteins upon treatment with 0.01% (01), 0.03% (03) and 0.15% (15) of respective ceramide in vehicle as compared to vehicle without ceramide (VEH) (FIG. 1: GlcCerNS, FIG. 2: LacCerNS, FIG. 3: CerNG); detailed experimental setup explained in Example 1.
Material and methods: Reconstructed Human Epidermis (RHE) cell culture was used, as this system mimics the in vivo 3D structure of epidermal tissue as well as the conditions and processes that occur in normal epidermis. RHE were cultured using the medium provided by the manufacturer until analysis. RHE were maintained in survival for 24 hours, before RHE were topically treated with lipid in a base emulsion for 24 h. 3 RHE were treated with base emulsion alone and 3 more remained untreated as a control batch (Ctrl). RHE were incubated under classical cell culture conditions (37° C., 5% CO2).
Sample preparation and LC-MS/MS analysis: Protein was extracted using the Pierce Total Protein Extraction Kit (Thermo Fisher) according to manufacturer's recommendations. The protein was mixed with Laemmli buffer and heated to 37° C. for 30 min. Protein concentration was determined by the BCA method and standardized for all samples. The samples were separated by SDS-PAGE and digested with trypsin overnight. The peptides generated were acidified and separated. The mass spectra were queried using Proteome Discoverer (version 2.5). The resulting MS/MS data were queried against the Homo sapiens proteome UP000005640 (20371 reviewed entries). Results were filtered based on unique peptides>2, and global peptide scores. Analyses were performed using Proteome Discoverer 2.5 to check for overall sample quality.
Bioinformatics and statistical analysis: Proteomic analysis returned a mean total of 34961 high-quality peptides corresponding to a mean 2422 identifiable and quantifiable RHE proteins among conditions. Proteins with a p-value<0.05 in at least one of the concentrations tested for a lipid were considered significant and used for pairwise comparisons. Relevant proteins were classified by their biological processes and associated pathways using the publicly available gene ontology (GO) database provided by the Gene Ontology Consortium and Reactome. Interactome analysis was performed using Cytoscape combined with STRING.

Glucosyl ceramide [GlcCer]
upregulation: ATP synthase subunit delta (mitochondrial) protein level | ATP synthase subunit g (mitochondrial) protein level | ATP-dependent zinc metalloprotease YME1L1 protein level | NAD-dependent malic enzyme (mitochondrial) protein level | NADH dehydrogenase [ubiquinone]1 alpha subcomplex subunit 8 protein level | NADH dehydrogenase [ubiquinone]iron-sulfur protein 2 (mitochondrial) protein level | cytochrome c oxidase subunit 6C protein level | phosphomevalonate kinase protein level

ceramide NG
upregulation: ATP synthase subunit delta (mitochondrial) protein level | ATP synthase subunit g (mitochondrial) protein level | cytochrome c oxidase subunit 6C protein level | phosphomevalonate kinase protein level

lactosyl ceramide
upregulation: ATP synthase subunit delta (mitochondrial) protein level | ATP synthase subunit g (mitochondrial) protein level | ATP-dependent zinc metalloprotease YME1L1 protein level | NAD-dependent malic enzyme (mitochondrial) protein level | cytochrome b-c1 complex subunit 9 protein level | cytochrome c oxidase subunit 2 protein level | cytochrome c oxidase subunit 6C protein level | cytochrome c oxidase subunit NDUFA4 protein level | phosphomevalonate kinase protein level
